Measurements taken from patent publication US8247552B2, “Analogs of dehydrophenylahistins and their therapeutic use” (Nereus Pharmaceuticals, Inc., priority 2002, dated 2012).
Converted amounts (≈) assume the structure as drawn. Read-outs that look alike come from different tables or passages of the source.

How the values were obtained:
[1] = test system: Trichophyton mentagrophytes; assay: Antifungal susceptibility testing (NCCLS M38-A), MIC/MFC; format: cell-based
Protocol: (§1) Specifically, disclosed compounds were evaluated alongside commercially available microtubulin inhibitors as well as recognized antifungal agents. […].
(§2) Microorganisms against which these compounds were tested included: Candida albicans, Candida glabrata, Aspergillus fumigatus, Trichophyton rubrum, Trichophyton mentagrophytes, Epidermophyton floccosum. With the exception of Candida glabrata (one isolate), two isolates of each species were tested.
(§3) Drug concentrations were 0.03-16 μg/ml for the investigational compounds, 0.015-8 μg/ml for itraconazole and griseofulvin.
(§4) The minimum lethal concentration (MLC) was determined by plating […] from the MIC concentration and each concentration above the MIC. […] When a MIC was obtained, a minimum fungicidal concentration (MFC) was determined to assess the fungistatic/fungicidal nature of the compound. […] The compound is scored as fungistatic if the cells are able to resume growth and fungicidal if no regrowth is possible because the compound had killed the organisms.

[2] = test system: PC-3 prostatic adenocarcinoma cells; assay: Tumor cytotoxicity assay, resazurin fluorescence, 48 h; format: cell-based; settings: Homo sapiens, Table 1
Protocol: 10× concentrated serial dilutions of the two compounds were prepared in appropriate culture medium for final concentrations ranging from 2.0×10^−5 M to 2.0×10^−10 M. Ten μl volumes of the 10× serial dilutions were added to the test wells in triplicate and the plates returned to the incubator for 48 hours.
Resazurin dye without cells was used to determine the background, which was subtracted from the data for all experimental wells. The data were analyzed using Prism software (GraphPad Software).
PC-3, a human prostate adenocarcinoma, was maintained in F12K complete medium (F12K medium supplemented with 10% FBS; 2 mM Glutamine; 1% HEPES; and Pen/Strep at 100 IU/ml and 100 μg/ml, respectively).
20 mM stock solutions of compounds were prepared in 100% DMSO and stored at −80° C. […] Ten μl volumes of the 10× serial dilutions were added to the test wells in triplicate and the plates returned to the incubator for 48 hours.

[3] = test system: Jurkat cells (human T cell leukemia line); assay: DNA fragmentation (DNA laddering) by gel electrophoresis; format: cell-based
Description: A late stage characteristic of apoptosis is internucleosomal DNA cleavage that results in a distinctive ladder pattern that can be visualized by gel electrophoresis.

[4] = test system: Trichophyton rubrum; assay: Antifungal susceptibility testing (NCCLS M38-A), MIC/MFC; format: cell-based
Protocol: Specifically, disclosed compounds were evaluated alongside commercially available microtubulin inhibitors as well as recognized antifungal agents.
as §2
The minimum lethal concentration (MLC) was determined by plating […] from the MIC concentration and each concentration above the MIC. […] When a MIC was obtained, a minimum fungicidal concentration (MFC) was determined to assess the fungistatic/fungicidal nature of the compound.

[5] = test system: panel of 60 different kinases; settings: ATP 10 μM; four kinases
[6] = test system: MDA-231 human breast tumor; assay: MDA-231 Human Breast Tumor Orthotopic (mammary fat pad) Xenograft Model; format: in vivo, mice; settings: KPU-2 7.5 mg/kg ip q3dx5 with paclitaxel 16 mg/kg ip qdx5; three weeks
Protocol: The animals used were: female nude mice (nu/nu) (MDA-231 study) or B6D2F1 (B16-F10 studies) mice between 5 and 6 weeks of age (˜20 g, Harlan); group size was 10 mice per group unless otherwise indicated.
NPI compounds were administered as monotherapy via the intraperitoneal route at the doses indicated for the individual study; for the combination studies the selected reference chemotherapy agents were injected 15-30 min prior to the NPI compound.
Female nude mice were injected in the mammary fat pad with 2×10^6 MDA-231 cells harvested from in vitro cell culture. When the tumor size reached 5 mm×5 mm (about 14-28 days) the animals were matched into treatment and control groups. The study then proceeded as described for the HT-29 model, using paclitaxel as the standard chemotherapy agent.
In this model unless otherwise noted for the individual study, the test compounds were administered via the intraperitoneal route on Days 1, 4, 8, 11 and 15 (q3dx5); paclitaxel was administered via the intraperitoneal route on Days 1-5 (qdx5).
This model involves the placement of the human tumor tissue into the mouse mammary fat pad, a surrogate of the natural environment. In this manner the possibility of a positive effect due to a specific action on the subcutaneous vascular bed is avoided.

[7] = test system: human prostate tumor cells; assay: Induction of apoptosis, morphological changes; format: cell-based
Description: The characteristic signs of apoptotic cell death include cell membrane blebbing, disruption of nuclei, cell shrinkage and condensation and finally cell death, very distinctive from necrotic cell death. […] A similar finding was also clear in the treatment of HuVEC cells with KPU-2.

[8] = test system: HT-29 human colon cells; assay: Tumor cytotoxicity / cell growth inhibition assay, resazurin fluorescence, 48 h; format: cell-based
[9] = test system: poly(ADP-ribose) polymerase (PARP) in Jurkat cells; assay: Cleavage of poly(ADP-ribose) polymerase by western blotting; format: cell-based, human; settings: 100 nM, 10 hours after exposure
[10] = test system: DU-145 human prostate tumor; assay: DU-145 Human Prostate Tumor Xenograft Model; format: in vivo, mice; settings: KPU-2 plus taxotere, treatment Days 20-27
Protocol: Selected novel compounds were administered as monotherapy via the intraperitoneal (i.p.) route at the doses indicated for the individual study; for the combination studies the selected reference chemotherapy agents were injected 15-30 min prior to the compound.
When the tumors reached ˜5 mm×5 mm (at about 13-17 days) the animals were matched into treatment and control groups. The remainder of the study proceeded as for the HT-29 model, using taxotere as the standard chemotherapy agent.
In this model unless otherwise noted for the individual study, test compounds were administered via the intraperitoneal route on Days 1, 3, 5, 8 and 11 (q3dx5); taxotere was administered intravenously on Days 1, 3 and 5 (q2dx3).

[11] = test system: HuVEC cells; assay: Microtubule (tubulin) depolymerization, α-tubulin staining; settings: for microtubule depolymerization in HuVEC cells: 2 μM, thirty minutes exposure
Protocol: The plates were returned to the incubator for 2 days.
20 mM stock solutions of compounds were prepared in 100% DMSO and stored at −80° C. 400× concentrated dilutions of the compounds were prepared in 100% DMSO. 5 μl volumes of the dilutions were added to individual wells resulting in a final concentration of 20 nM. […] The plates were returned to the incubator for 30 minutes.
The cells were rinsed in dPBS before fixation in 10% (v/v) neutral buffered formalin for 10 minutes at room temperature. Following fixation, α-tubulin was visualized by indirect immunofluorescence. Specifically, the cells were permeabilized in 0.2% (v/v) triton X-100/dPBS for 10 minutes. The cells were washed prior to transferring the coverslips to a humidified chamber, the coverslips were blocked for two hours in antibody buffer [2% (w/v) BSA/0.1% (v/v) Tween 20/dPBS]. The coverslips were incubated with 50 μl of 0.1 μg/ml mouse α-tubulin (Molecular Probes) in antibody buffer for 1 hour before washing and incubation with 50 μl of 1 μg/ml goat anti-mouse FITC (Jackson ImmunoResearch Laboratories) for one hour in the dark. Finally, the cells were washed and treated with 2 μg/ml DAPI (Molecular Probes) for 10 minutes before rinsing in H2O and mounting with Vectashield (Vector Labs) mounting media. The cells were imaged using a 60× oil immersion objective on an upright microscope (Olympus BX51). The images were digitally captured using a CCD camera and Magnafire 2.0 software (Olympus). Post image processing was performed in Photoshop Elements 2.0 (Adobe) and in Microsoft Powerpoint.
Human umbilical vein endothelial cells (HuVECs; Cambrex CC2519A) were maintained at subconfluent densities in EGM-2 (Cambrex) media. […] The plates were returned to the incubator for 2 days.
Stock (20 mM) solutions of the test compounds were prepared in 100% DMSO. 400× concentrated dilutions of the compounds were prepared in 100% DMSO. 5 μl volumes of the dilutions were added to individual wells resulting in a final concentration of 200 nM. […] The plates were returned to the incubator for 30 minutes.
The cells were rinsed in dPBS before fixation in 10% (v/v) neutral buffered formalin for 10 minutes at room temperature. Following fixation, α-tubulin was visualized by indirect immunofluorescence. Specifically, the cells were permeabilized in 0.2% (v/v) triton X-100/dPBS for 10 minutes. The cells were washed prior to transferring the coverslips to a humidified chamber, the coverslips were blocked for two hours in antibody buffer (2% (w/v) BSA/0.1% (v/v) Tween 20/dPBS). The coverslips were incubated with 50 μl of 0.1 μg/ml mouse α-tubulin (Molecular Probes) in antibody buffer for 1 hour before washing and incubation with 50 μl of 1 μg/ml goat anti-mouse FITC (Jackson ImmunoResearch Laboratories) for one hour in the dark. Finally, the cells were washed and treated with 2 μg/ml DAPI (Molecular Probes) for 10 minutes before rinsing in H2O and mounting with Vectashield (Vector Labs) mounting media. The cells were imaged using a 60× oil immersion objective on an upright microscope (Olympus BX51). The images were digitally captured using a CCD camera and Magnafire 2.0 software (Olympus). Post image processing was performed in Photoshop Elements 2.0 (Adobe) and in Microsoft Powerpoint.

[12] = test system: OVCAR-3 (human ovarian tumor); assay: Cytotoxicity, resazurin; format: cell-based; settings: Table 12, OVCAR-3 Ovary
Description: (§5) Cells were maintained at subconfluent densities in their respective culture media.

[13] = Cytotoxicity, resazurin; format: cell-based; settings: human, CCD-27sk normal fibroblasts; Table 12; CCD-27sk Fibroblast
Description: as §5

[14] = test system: MCF-7 human breast tumor; assay: MCF-7 Human Breast Tumor Xenograft Model; format: in vivo, mice; settings: combination with taxotere
Protocol: Animals used were (exceptions are indicated for individual studies): female nude mice (nu/nu) between 5 and 6 weeks of age (˜20 g, Harlan); group size was 9-10 mice per group unless otherwise indicated.
Female nude mice (˜20 g) were implanted s.c. with 21-day release estrogen (0.25 mg) pellets 24 hours prior to the s.c. implantation with MCF-7 tumor fragments (harvested from s.c. tumors in nude mice hosts). The study then proceeded as described for the HT-29 model, using taxotere as the standard chemotherapy agent.
In this model unless otherwise noted for the individual study, the novel compounds were injected via the intraperitoneal route daily on Days 1-5, inclusive (qdx5); taxotere was administered intravenously on Days 1, 3 and 5 (qodx3).
The doses of the compounds were administered on Days 1, 2, 3, 4, and 7; Taxotere was administered on Days 1, 3 and 7.

[15] = test system: N202 mammary tumor vasculature; assay: Murine syngeneic pseudo-orthotopic breast cancer model, dorsal skinflap chamber, vascular targeting
Description: A murine syngeneic “pseudo-orthotopic” breast cancer model was used to address these issues. […] To create the “pseudo-orthotopic milieu,” the coverslip of a dorsal skinflap chamber was removed and small pieces of mammary fatpad from donor mice were implanted into the chamber. On top of the fatpad graft, tumor spheroids containing N202 mammary tumor cells transduced with Histone (H2B)-green fluorescent protein (GFP) were applied. The use of H2B-GFP transduced cells allows for visualizing tumor growth and monitoring mitosis and apoptosis.
Fluorescence video microscopy allows for the relatively non-invasive study of tumor microcirculation in conscious mice.
Tumor area, blood flow rate, and vascular density within and surrounding the tumor were visualized. Real-time observations were recorded at various time-points using still photos and video microscopy.

[16] = test system: P22 rat sarcoma tumor blood flow; assay: Blood flow in the P22 rat sarcoma model with 125I-IAP; format: in vivo; settings: 15 mg/kg IP
Protocol: In contrast, blood flow in non-tumor tissues was affected to a much lesser extent at 1 hour (see FIG. 35).

[17] = test system: MCF7 cells (GFP-alpha-tubulin); assay: Microtubule dynamic instability in living MCF7 cells (time-lapse microscopy); format: cell-based, human; settings: concentrations effecting 25% or 50% of maximal mitotic block
[18] = test system: P22 rat sarcoma; assay: Tumor necrosis in the P22 rat sarcoma model; format: in vivo; settings: 7.5 and 15 mg/kg IP, 24 hours post-dose
Description: “A dose-escalation study of the novel vascular-targeting agent, ZD6126, in patients with solid tumors,” Proc Am Soc Clin Oncol 2002; 21:abstract 438; each of which is hereby incorporated by reference in its entirety.

[19] = test system: HuVEC monolayer; assay: HuVEC monolayer permeability to FITC-Dextran; format: cell-based, human
Protocol: The enhanced permeability of HuVEC cells to a fluorescent-labeled dextran is used as a proxy assay for vascular collapse.
Human umbilical vein endothelial cells (HuVECs; Cambrex CC2519A) were maintained at subconfluent densities in EGM-2 (Cambrex) media. […] For monolayer permeability assays, HuVEC cells were seeded at 1×10^5 cells/ml in EGM-2 media on Fibronectin-coated 3.0 μm Fluoroblok inserts (Becton Dickinson) in 24-well plates. The plates were returned to the incubator for 4 days to allow the cells to reach confluency.
Stock solutions (20 mM) of the test compounds were prepared in 100% DMSO. 10× concentrated serial dilutions of the compounds were prepared in EGM-2. 10 μl volumes of the serial dilutions were added to the test inserts in duplicate resulting in final concentrations ranging from 2 μM to 2 nM.
The final concentration of FITC-Dextran was 1 mg/ml.

[20] = test system: MES-SA/Dx5 (Taxol resistant) human uterine sarcoma; assay: Cytotoxicity / growth inhibition in multidrug resistant uterine sarcoma cells; format: cell-based; settings: for IC50: Table 13, III
Protocol: 1) Human Uterine Sarcoma Tumor Cell Line Pair: MES-SA (Taxol Sensitive) and MES-SA/Dx5 (Taxol Resistant).
HL-60 and HL-60/MX2 cells were both seeded at 5×10^4 cells/well in 90 μl complete media into 96 well plates on the day of compound addition. […] Ten μl volumes of the 10× serial dilutions were added to the test wells in triplicate and the plates returned to the incubator for 48 hours.
Resazurin dye in medium without cells was used to determine the background, which was subtracted from the data for all experimental wells.
The multidrug resistant MES-SA/Dx5 tumor cell line was derived from the human uterine sarcoma MES-SA tumor cell line and expresses elevated P-Glycoprotein (P-gp), an ATP dependent efflux pump. […] Paclitaxel, a known substrate of the P-gp pump was included as a control.

[21] = Physicochemical stability, Z to E migration under light; settings: visible light, normal room light
Protocol: The physicochemical stability is one of the unfavorable problems of dehydroPLH. In phenylahistin, since there is no additional olefin structure at the benzyl part, there is no such problem. […] In the cytotoxic assay, some of the compounds migrate to E-form during the incubation, although this migration probably equilibrates at the 1:1 ratio in the case of dehydroPLH. This migration can be controlled.

[22] = test system: Epidermophyton floccosum; assay: Antifungal susceptibility testing (NCCLS M38-A), MIC/MFC; format: cell-based; settings: Table 24, read-out: E. floccosum isolate #2 (column head empty, before MFC)
Protocol: as §1, §2, §3, §4

[23] = test system: HL-60 human acute promyelocytic leukemia (Mitoxantrone-sensitive); assay: Cytotoxicity / growth inhibition in sensitive leukemia cells; format: cell-based; settings: Table 20, mean of two independent experiments, 48 hours
Protocol: (§6) HL-60 and HL-60/MX2 cells were both seeded at 5×10^4 cells/well in 90 μl complete media into 96 well plates on the day of compound addition. 20 mM stock solutions of the compounds were prepared in 100% DMSO and stored at −80° C. […] Ten μl volumes of the 10× serial dilutions were added to the test wells in triplicate and the plates returned to the incubator for 48 hours.

[24] = test system: HL-60/MX-2 (Mitoxantrone-resistant); assay: Cytotoxicity / growth inhibition in resistant leukemia cells; format: cell-based, human
Protocol: as §6

C=CC(C)(C)c1[nH]cnc1/C=c1\[nH]c(=O)/c(=C/c2ccccc2)[nH]c1=O [KPU-1, Dehydrophenylahistin]
potency versus sensitive T. mentagrophytes isolate [1]: weaker but more comparable to the others
EC50 [2]: 5.4 nM
DNA laddering, potency compared with KPU-2 [3]: much less potent
potency versus T. rubrum [4]: significantly less potent than the other compounds

CC(C)(C)c1[nH]cnc1/C=c1\[nH]c(=O)/c(=C/c2ccccc2)[nH]c1=O [KPU-2, tBu-dehydrophenylahistin]
IC50 against kinases inhibited >50% in primary screen [5]: low micromolar range
inhibition of tumor growth [6]: significant inhibition of tumor growth in the combination therapy group
morphological changes of apoptosis [7]: induced the typical morphological changes associated with early stages of apoptosis
cytotoxic activity against HT-29 cells [8]: active in the low nanomolar range
cleavage of PARP [9]: induced cleavage of PARP
apparent TGI of combination therapy [10]: > 58%
antifungal potency compared with griseofulvin ([4]; dermatophyte isolates): equivalent in potency or in some cases more potent than griseofulvin
microtubule depolymerization in HuVEC cells [11]: induced microtubule depolymerization
IC50 [12]: > 20 nM
cytotoxicity at 48 h [13]: 64.3%
effect on estimated tumor growth with taxotere [14]: appeared to be the most effective

CC(C)(C)c1[nH]cnc1/C=c1\[nH]c(=O)/c(=C/c2ccccc2)[nH]c1=O [KPU-02]
tolerability ([15]; i.v. infusion 5-10 mg/kg): well tolerated
effect on tumor vasculature ([15]; single i.v. treatment): rapid collapse of the central vasculature
tumor blood flow, % of vehicle ([16]; 1 hour after administration): 23%
tumor blood flow, % vehicle ([16]; 24 hours): 59%
effect on MT dynamic instability [17]: did not have a measurable effect on MT dynamic instability
tumor necrosis [18]: dose-dependent tumor necrosis
tubulin depolymerization in HuVEC cells ([11]; 200 nM, 30 min): rapidly induce tubulin depolymerization

CC(=O)O[C@H]1C(=O)[C@@]2(C)[C@H]([C@H](OC(=O)c3ccccc3)[C@]3(O)C[C@H](OC(=O)[C@H](O)[C@@H](NC(=O)c4ccccc4)c4ccccc4)C(C)=C1C3(C)C)[C@]1(OC(C)=O)CO[C@@H]1C[C@@H]2O [Taxol]
HuVEC monolayer permeability [19]: inactive
potency in resistant MES-SA/DX5 versus sensitive MES-SA line [20]: virtually inactive
IC50 ([20]; cyclosporin A pretreatment, Study II, read-out: MES-SA/DX5 Resistant, CsA Pretreat, IC50 nM): 40 nM
IC50 ([20]; no cyclosporin A, Study I, II, read-out: MES-SA/DX5 Resistant, No CsA, IC50 nM): > 24000 nM
microtubule depolymerization in HuVEC cells [11]: did not induce microtubule depolymerization

C=CC(C)(C)c1[nH]cnc1/C=c1\[nH]c(=O)/c(=C/c2ccccc2)[nH]c1=O [dehydroPLH, dehydrophenylahistin]
Z to E migration [21]: Z to E migration frequently occurs

COC1=CC(=O)C[C@@H](C)[C@]12Oc1c(Cl)c(OC)cc(OC)c1C2=O [griseofulvin, Griseofulvin]
MFC [22]: 4 µg/mL (≈ 11.3 µM)

O=C1c2c(O)ccc(O)c2C(=O)c2c(NCCNCCO)ccc(NCCNCCO)c21 [mitoxantrone, Mitoxantrone]
EC50 [23]: 42 nM
EC50 ([24]; Homo sapiens, HL60/MX2, Table 20, mean of two independent experiments, 48 hours): 1100 nM
loss of efficacy in the resistant HL-60/MX-2 cell line ([24]; versus HL-60, Example 10): 24 fold
times less active against resistant HL-60/MX2 cells ([24]; versus HL-60, Example 11): ~26 times
reduced susceptibility of MES-SA/DX5 cell line ([20]; versus MES-SA): 20 fold
